Article PMC3472974, “The Bite of the Honeybee: 2-Heptanone Secreted from Honeybee Mandibles during a Bite Acts as a Local Anaesthetic in Insects and Mammals” (PLoS ONE, 2012)
Values after ≈ are worked out from the molar mass of the structure shown. Marks after values point to notes of the source that are not given here.

Key:
[1] = test system: wax moth larvae (WML); experiment: Locomotory pattern of tethered wax moth larvae after injection; format: in vivo, Galleria mellonella; settings: 2.5 µL injected (8.15 mg per 1 g body weight), larger WML body weight 0.25 g
Text: To monitor the constant locomotory pattern of WML, the probe of a force-displacement transducer (FT-03C, Grass Instrument Company, USA), attached to a micromanipulator, was hooked onto the tail of the WML, while the head was carefully pinned to a wax substrate, [14]. The electrical signal generated by the rhythmic force produced during locomotion was amplified and fed to a computer through a data acquisition card interface (Keithley KPCI 3102, Keithley Instruments, Cleveland, OH, USA). Software designed using the facilities of Labview (Labview 5.1, National Instruments USA) permitted analysis of the recorded data.

[2] = no reference given; cited from earlier work
[3] = test system: Varroa destructor; experiment: Gravitational reflex of Varroa mites after topical application; format: in vivo
Procedure: We tested 2-H on a far smaller arthropod that parasitizes honeybees, the mite, Varroa destructor. When 0.025 µL of 2-H was applied topically to the sternum of mites (n = 10) fixed ventral side up, the gravitational reflex–the rhythmic expansion of the thorax and abdomen [15]–was distorted (Fig. 3d). When the concentration was increased to 0.061 µL, the gravitational reflex completely malfunctioned and the Varroa mites (n = 10) were totally paralysed within 30–40 s (Fig. 3e) with no recovery, even after 12 h of observation. We applied larger concentrations of 2-H to the Varroa mites topically because the mites’ small size made it impossible to inject 2-H into the haemolymph.

[4] = test system: nerves of the rat tail; set-up: method as in PMID 6093852; settings: cited from earlier work
[5] = test system: honeybees; experiment: Recruitment of defensive honeybees at the colony entrance, BeeSCAN counters; format: in vivo, Apis mellifera; settings: control 46.42
Procedure: We first tested the dominant hypothesis that honeybees secrete 2-H as an alarm pheromone that recruits other honeybees in the face of a potential threat. We monitored honeybee response to different doses of 2-H applied at colony entrances. In control colonies, which were not exposed to 2-H, an average of 46.42 bees left the colony per minute (n = 5, SEM = 0.43). There was no statistical difference, 10 minutes after application, between the mean number of bees recruited in control colonies and those recruited in colonies exposed to 0.1 µL 2-H (mean = 47.18, n = 5, SEM = 0.36, p = 1.000). In contrast, higher doses of 2-H acted as a repellent.
We conducted field experiments at the apiary, in which we used electronic monitoring devices (BeeSCAN v2.03) to test whether the presence of 2-H on the colony flight boards stimulated recruitment of defensive honeybees. The monitoring devices counted the number of honeybees exiting the beehive once per minute for 10 minutes for each of the five colonies per treatment. […] To apply 2-H, we followed the standard methodology described in previous experiments.

[6] = test system: rat; settings: oral rat; no reference given; cited from earlier work
[7] = test system: isolated rat sciatic nerve; experiment: tissue or blood
Text: The ex vivo studies used both male and female rats weighing between 230 and 250 g. Animals were sacrificed using light anaesthesia with CO2 and cervical dislocation. The sciatic nerve of the rat, consisting of 27,000 sciatic nerve fibres, was isolated in a three-chamber recording bath (Fig. 5b). The sciatic nerves were dissected from the spinal cord to the knee, immersed in oxygenated (O2, 100%) saline solution and cleaned. The composition of the saline was (in mmoles/L): 136 NaCl, 11 glucose, 4.7 KCl, 2.4 CaCl2, 1.1 MgCl2, 1 NaHCO3, 10 HEPES, pH = 7.2). All experiments were performed at a constant temperature, 26.0±1.0°C. […] The nerve was mounted in a three-chambered recording bath made of Plexiglas, which is described elsewhere, [30]. The recording bath consisted of the recording (R in Fig. 5b), perfusion (P) and stimulating (S) chambers, each with a volume of 12 mL. The nCAP (Fig. 5a) was generated by stimulating (1 Hz) the part of the nerve in the stimulating chamber and was recorded in the recording chamber every second using standard electrophysiological methods. The nCAP was monitored throughout the experiment as an indication of the vitality of the nerve fibres in the recording bath. […] Immediately after the nCAP was eliminated, the saline+compound was removed and the nerve was washed out. Then, recovery of the nCAP in normal stagnant saline was monitored for 24 h. It is worth noting that the recording bath is designed in such a way that the chambers with the saline and 2-H (the nerves and the recording electrodes) was shielded from the air by using the cover (c in Fig. 5b) to avoid evaporation of the volatile 2-H. The saline with 2-H was added through a small diameter opening on the cover.
For further data analysis, the amplitude of the nCAPs, estimated from baseline to peak (Fig. 5), were measured at a specific time (every 1.0 s, 1.0 min or 1.0 h) and were expressed as a percentage of the amplitude of the nCAP at t = 0 (which was considered to be 100%). In the neuropharmacological experiments, time t = 0 was considered the time before application of the compound under investigation. […] The data were fitted in the program GraphPad Prism 5.0 using a one-phase exponential decay equation for the IC50. Data were analyzed by one-way ANOVA and Bonferroni’s post hoc tests, when required. Significance was determined using Students t-test or ANOVA as appropriate (p<0.05).

CCCCCC(C)=O [2-H, 2-heptanone]
effect on locomotory pattern [1]: body movement stopped abruptly
recovery time of locomotory pattern ([1]; n = 8): 87.62 min
logP [2]: 1.98
effect on gravitational reflex ([3]; 0.025 µL applied topically to the sternum, n = 10): distorted
recovery from paralysis ([3]; 0.061 µL applied topically, 12 h of observation): no recovery
neurotoxic effects in vivo [4]: no neurotoxic effects
mean number of bees leaving the colony per minute ([5]; 0.1 µL 2-H at colony entrance, 10 minutes after application, p = 1.000): 47.18 per minute
mean number of honeybees exiting the hive per minute ([5]; 10 µL 2-H at colony entrance, p = 0.003): 42.54 per minute
mean number of honeybees exiting the hive per minute ([5]; 1000 µL 2-H at colony entrance, p = 0.002): 40.88 per minute
acute LD50 [6]: 1670 mg/kg
neurotoxic action in 24 h monitoring of nerve vitality [7]: no neurotoxic action
IT0 (time required for 100% inhibition of the nCAP) ([7]; 1.41 mg/mL): 517.5 ± 25.62 s
IT50 (time to inhibit nCAP amplitude to 50% of control) ([7]; 1.41 mg/mL): 109.7 ± 2.87 s
IT0 (time required for 100% inhibition of the nCAP) ([7]; 2.28 mg/mL): 358.8 ± 18.07 s
IT50 (time to inhibit nCAP amplitude to 50% of control) ([7]; 2.28 mg/mL): 108.9 ± 0.22 s
IT0 (time required for 100% inhibition of the nCAP) ([7]; 3.41 mg/mL): 221.88 ± 7.32 s
IT50 (time to inhibit nCAP amplitude to 50% of control) ([7]; 3.41 mg/mL): 39.14 ± 4.84 s
time to complete elimination of the nCAP ([7]; 3.41 mg/mL): 221.88 s
IT0 (time required for 100% inhibition of the nCAP) ([7]; 10 mg/mL): 195 ± 12 s
IT50 (time to inhibit nCAP amplitude to 50% of control) ([7]; 10 mg/mL): 22.3 ± 1.1 s
IC50 ([7]; Rattus norvegicus, read-out: IC50 from concentration-response curves of the IT0 values): 469 µg/mL (≈ 4.11 mM)
IT0 ([7]; Table 3, 3.41 mg/mL, unit not given in Table 3, s): 221.88±7.32^a seconds
IT50 ([7]; Table 3, 3.41 mg/mL, unit not given in Table 3, seconds per Table 2): 39.14 ± 4.84 s
recovery of nCAP amplitude after wash with normal saline ([7]; after elimination of nCAP, remained at this level for at least 24 h, n = 8): 89.51%
